Measurements taken from article PMC6315428, “Quantification of α-Thujone and Its Metabolites in Human Urine after Consumption of a Sage Infusion Using Stable Isotope Dilution Assays” (Toxins, 2018).

Experiments:
[1] = system: gamma-aminobutyric acid A (GABAA) receptor; set-up: method as in PMID 10725394; settings: leads to convulsions and excitations at higher concentrations in animal studies; cited from earlier work
[2] = Human study: urinary excretion of α-thujone and hydroxythujones after consumption of a sage infusion (SIDA, SPME-GC-MS and LC-MS/MS); format: in vivo, humans; settings: for detection in urine of the volunteers: after consumption of 575.0 µg α-thujone, hydroxythujones after liberation from glucuronides/sulfates; for minimum degree of glucuronidation/sulfation: human urine, calculated from two samples with free hydroxythujones above LOQ; for Total excretion in human urine: 575 µg α-thujone as sage infusion, urine over 24 h; for time after which no additional excretion was observed: after ingestion of sage infusion, all but test person 2 for 7-OH; for maximum concentration in urine: volunteer with the highest dose of 14.3 µg/kg bw, after sage infusion
Experimental: The protocol of the study was approved by the Ethics Committee of the Faculty of Medicine of the Technische Universität München (1996/07). Written informed consent was obtained from participants before inclusion into the study. Seven healthy, non-smoking volunteers, six Caucasian, participated in the study (3 men and 4 women, mean (±standard deviation [SD]) age 29.7 (±9.21) years, and mean (±SD) body mass index 23.1 (±5.08) kg/m^2). For 24 h prior to the study, the volunteers avoided herbs and spices containing α-thujone for a wash out. A blank urine sample was collected as a control from each volunteer before consumption of the sage infusion. On an empty stomach, the volunteers drank the tea (575 µg α-thujone) within 10 min, and urine was collected at 1, 1.5, 2.5, 3.5 h, and in the time frames of 4.5–6, 6–8, 8–14, 14–24 h after consumption. A defined meal (cheese sandwich) was eaten after 2 h. The samples were stored at 4 °C until preparation for analysis.
The cooled samples were adjusted with HCl to pH 5 and divided into 2 mL aliquots. A solution containing the labeled hydroxythujones (220–430 ng) and β-glucuronidase (5000 units/mL sample; 1 unit liberates […] phenolphthalein from its glucuronide per hour at pH 5.0 at 37 °C) was added, and the mixture stirred at 37 °C for 15 h. Afterwards, the samples were centrifuged (16000 rpm, 4 °C, 15 min) and the supernatant was subjected to solid phase extraction (SPE).
The SPE tubes (ENVI-18, 100 mg, Supelco) were equilibrated with 2 × 1 mL methanol and 2 × 1 mL water. Thereafter, the clear supernatant was loaded on the columns and was slowly passed through without suction. The protein residue was reextracted with water/methanol (95:5, 1 mL), and also loaded on the SPE tubes. The tubes were washed with water/methanol (95:5, 2 × 1 mL) by suction, and then dried carefully. Analytes were slowly eluted with water/acetonitrile (50:50, 500 µL). The extracts were analyzed by LC-MS/MS.
Measurements on the LC-MS/MS were performed using a Shimadzu LC-30A Prominence system (Shimadzu, Kyoto, Japan) interfaced to an LCMS-8050 Triple Quadrupol mass spectrometer (Shimadzu, Kyoto, Japan). A total of 40 µL was injected onto a YMC Pro Pack C4 at 30 °C oven temperature and flow of 0.5 mL/min with water (solvent A) and ACN (solvent B). The gradient was started and held at 5% B for 2 min, raised linearly from 5% B to 30% B during the next 1 min, then raised linearly to 33% within the next 7 min, and to 100% B within the next 1 min. Thereafter, the mobile phase returned to 5% B within 2 min, and the system was equilibrated for 18 min before the next run. The atmospheric pressure chemical ionization (APCI) source was operated in the positive mode under the following conditions: nebulizing gas flow 3 L/min; interface temperature 350 °C; desolvation line temperature 200 °C; drying gas flow 5 L/min. For MS/MS of the hydroxythujones, the mass transitions (m/z precursor ion/ m/z product ion) 151/81 (collision energy = −17 V) and 151/123 (−14 V) for 2-OH, 151/109 (−13 V) and 151/91 (−23 V) for 4-OH, 151/105 (−18 V) and 151/81 (−17 V) for 7-OH, 157/129 (−14 V) and 157/87 (−15 V) for d6-2-OH, […] (−16 V) and 157/91 (−23 V) for d6-4-OH, and 157/129 (−14 V) and 157/99 (−16 V) for d6-7-OH were used.
To determine the hydroxythujone content in urine, calibration functions for 2-OH, 4-OH, and 7-OH were generated with the respective labeled compounds. Calibrators with unlabeled and labeled compounds were prepared in an aqueous solution, in seven different ratios for the unlabeled compounds ranging from 3.1–601.9 µg/mL, while maintaining the labelled compounds constant at concentrations of 450 µg/mL each. The samples were measured by LC-MS/MS. From the relation of area ratios to molar ratios, calibration curves were constructed. […]

[3] = set-up: method as in PMID 11368559; settings: mouse urine; cited from earlier work
[4] = set-up: method as in PMID 20425757; settings: cited from earlier work
[5] = recently deduced; cited from earlier work
[6] = test person 1, dose/bw 14.3 µg/kg, after glucuronide/sulfate deconjugation
[7] = test person 2, dose/bw 11.4 µg/kg, after glucuronide/sulfate deconjugation
[8] = test person 3, dose/bw 8.2 µg/kg, after glucuronide/sulfate deconjugation
[9] = test person 4, dose/bw 6.7 µg/kg, after glucuronide/sulfate deconjugation
[10] = test person 5, dose/bw 8.9 µg/kg, after glucuronide/sulfate deconjugation
[11] = test person 6, dose/bw 4.6 µg/kg, after glucuronide/sulfate deconjugation
[12] = test person 7, dose/bw 7.6 µg/kg, after glucuronide/sulfate deconjugation

SMILES | detection in urine of the volunteers [2] | minimum degree of glucuronidation/sulfation [2] [%] | Total excretion in human urine [2, 6] [µg] | Total excretion in human urine [2, 7] [µg] | Total excretion in human urine [2, 8] [µg] | Total excretion in human urine [2, 9] [µg] | Total excretion in human urine [2, 10] [µg] | Total excretion in human urine [2, 11] [µg] | Total excretion in human urine [2, 12] [µg] | time after which no additional excretion was observed ([2]; urine) [h] | degree of glucuronidation [3] [%] | further results
CC(C)[C@]12CC(=O)[C@H](C)[C@H]1C2 [thujone] |  |  |  |  |  |  |  |  |  |  |  | effect on GABAA receptor [1]: inhibits
CC(C)[C@]12CC(=O)[C@@](C)(O)[C@H]1C2 [4-OH, 4-hydroxythujone] | detectable | ≥ 66 | 13.9 | 17.9 | 14.6 | 11.8 | 16.5 | 17.0 | 26.3 | 7 to 8 | 61 | 
C[C@H]1C(=O)C[C@]2(C(C)(C)O)C[C@H]12 [7-OH, 7-hydroxythujone] | detectable | ≥ 55 | 15.6 | 20.9 | 8.6 | 4.0 | 7.8 | 6.9 | 5.9 | 7 to 8 | 2 | slower excretion until ([2]; urine, test person 2): 16 h
CC12CCC(CC1)C(C)(C)O2 [1,8-cineole] |  |  |  |  |  |  |  |  |  |  |  | dose recovered as the sum of 2-, 9-, 3- and 7-hydroxy-1,8-cineole [4]: 52.5%
CC(C)[C@@]12C[C@@H]1[C@@H](C)C(=O)[C@@H]2O [2-OH, 2-hydroxythujone] | not being detectable |  |  |  |  |  |  |  |  |  | 85 | detection in urine of the volunteers ([2]; listed as 2-Hydroxythujone): not present
CC(C)[C@]12CC(=O)[C@H](C)[C@H]1C2 [α-thujone] | detectable |  |  |  |  |  |  |  |  |  |  | detection in urine of the volunteers ([2]; listed as α-Thujone): detectable in a low amount; time after which urine concentration fell under the LODs ([2]; most volunteers): 4.5 h; Total excretion in human urine ([2]; test person 1, dose/bw 14.3 µg/kg): 0.0451 µg; Total excretion in human urine ([2]; test person 2, dose/bw 11.4 µg/kg): 0.008 µg; Total excretion in human urine ([2]; test person 3, dose/bw 8.2 µg/kg): 0.0361 µg; Total excretion in human urine ([2]; test person 4, dose/bw 6.7 µg/kg): 0.0163 µg; Total excretion in human urine ([2]; test person 5, dose/bw 8.9 µg/kg): 0.0107 µg; Total excretion in human urine ([2]; test person 6, dose/bw 4.6 µg/kg): 0.025 µg; Total excretion in human urine ([2]; test person 7, dose/bw 7.6 µg/kg): 0.0351 µg; time within which excreted ([2]; urine, almost all volunteers): ≤ 8 h; maximum concentration in urine [2]: 94.3 ng/L; maximum concentration in urine ([2]; listed as α-Thujone): 94 ng/L; acceptable daily intake [5]: 110 µg/kg bw/d
